In PubChem BioAssay (NCI):
Where “and” joins values, the source holds several entries; their conditions need not be identical. Equal values may be shown once.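 Interpolation was linear, between the two tested concentrations surrounding the appropriate level; five concentrations were tested over 48 hours in 96-well plates. The concentration for 50% growth inhibition is given as GI50. TGI denotes the concentration required for complete inhibition of growth.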

How the values were obtained:
Assay in all cases: DTP human tumour cell line panel, 48 h
[1] = tested on: HOP-92 NSCLC
[2] = tested on: KM12 colon
[3] = tested on: M14 melanoma
[4] = tested on: NCI-H226 lung
[5] = tested on: OVCAR-5 ovarian
[6] = tested on: SF-295 CNS
[7] = tested on: SK-MEL-28 melanoma
[8] = tested on: SK-OV-3 ovarian
[9] = tested on: NCI-H460 lung
[10] = tested on: MDA-MB-231 breast

| SMILES | TGI [1] | TGI [2] [µM] | TGI [3] [µM] | TGI [4] [µM] | TGI [5] [µM] | TGI [6] [µM] | TGI [7] [µM] | TGI [8] [µM] | TGI [9] [µM] | GI50 [1] [µM] | TGI [10] [µM] | GI50 [9] [µM] | GI50 [5] [µM] | GI50 [6] [µM] | GI50 [7] [µM] | GI50 [8] [µM] | GI50 [2] [µM] | GI50 [3] [µM] | GI50 [10] [µM] | GI50 [4] [µM] |
| --- | --- | --- | --- | --- | --- | --- | --- | --- | --- | --- | --- | --- | --- | --- | --- | --- | --- | --- | --- | --- |
| O=C(c1ccccc1)C(C(=O)c1ccccc1)C1(O)C(=O)c2ccccc2C1=O | 64.6 µM | > 100 | > 100 | > 100 | > 100 | > 100 | > 100 | > 100 | – | – | – | – | – | – | – | – | – | – | – | – |
| O=C(CNc1nncs1)NO | > 100 µM | > 100 | > 100 | – | > 100 | > 100 | > 100 | > 100 | > 100 | – | – | – | – | – | – | – | – | – | – | – |
| N#Cc1cn(C2OC(CO)C(O)C2O)c2ncnc(N)c12 (configuration not stated) | 0.665 µM and 0.182 µM | > 100 | 21.9 | – | – | – | – | – | – | 0.000461 | > 100 | < 0.0141 | 0.238 | < 0.0193 | 0.0329 | 0.108 | – | – | – | – |
| COc1ccc(-c2nc3sc(C)cn3c2/C=C/C(=O)c2cc(OC)c(OC)c(OC)c2)cc1 | – | 6.39 | > 100 | > 100 | > 100 | > 100 | – | > 100 | – | – | > 100 | – | > 100 | 4.42 | – | 4.19 | 2.69 | 3.97 | 3.78 | 4.12 |
| CC1=C(C(=O)Nc2ccccc2C)C(c2ccccc2)C(C(=O)Nc2ccccc2C)=C(C)N1 | 41.2 µM | > 100 | > 100 | > 100 | > 100 | > 100 | > 100 | > 100 | > 100 | – | – | – | – | – | – | – | – | – | – | – |
| Cc1cc(-c2ncc(CC(=O)Nc3ccc(-c4cnccn4)cn3)cc2C)ccn1 | 81.8 µM | > 100 | – | > 100 | > 100 | > 100 | > 100 | > 100 | > 100 | 12 | > 100 | 63 | 26.3 | 15.3 | 28.2 | > 100 | 36.1 | – | 55.7 | 13.7 |
| CCOc1ccccc1NC(=O)C(=O)CC(=O)c1c(C)n([O-])c2ccccc2[n+]1=O | > 100 µM | > 100 | > 100 | > 100 | > 100 | > 100 | > 100 | > 100 | > 100 | – | – | – | – | – | – | – | – | – | – | – |
| CC1=C(C(=O)Nc2c(C)cccc2C)C(c2ccc3c(c2)OCO3)C(C(=O)Nc2c(C)cccc2C)=C(C)N1 | – | 29.1 | 33.9 | 32.3 | 33.7 | 32.7 | 46 | > 100 | 39.9 | – | – | – | – | – | – | – | – | – | – | – |
| Cc1nc2c(nc1C)C(=O)c1cc(O)ccc1C2=O | > 100 µM | > 100 | > 100 | > 100 | > 100 | > 100 | > 100 | > 100 | > 100 | – | – | – | – | – | – | – | – | – | – | – |
| Nc1nc(SCc2ccccn2)c2ncn(C3CCCC3)c2n1 | – | > 100 | > 100 | > 100 | > 100 | > 100 | > 100 | > 100 | > 100 | – | > 100 | – | – | – | – | – | – | – | – | – |
